Laboratory results published in PMC3961306, “Comparison of the Cancer Gene Targeting and Biochemical Selectivities of All Targeted Kinase Inhibitors Approved for Clinical Use” (PLoS ONE, 2014).

Tests used:
Assay in all cases: Kinase profiling in a biochemical assay panel (mobility shift assays and ELISA), %-inhibition at 1 μM; selectivity entropy
[1] = target: T1, panel of more than 300 wild-type and mutant kinases (313 kinase panel) (Homo sapiens, UniProt Q9UQB9)
T1 sequence (Q9UQB9 1-309): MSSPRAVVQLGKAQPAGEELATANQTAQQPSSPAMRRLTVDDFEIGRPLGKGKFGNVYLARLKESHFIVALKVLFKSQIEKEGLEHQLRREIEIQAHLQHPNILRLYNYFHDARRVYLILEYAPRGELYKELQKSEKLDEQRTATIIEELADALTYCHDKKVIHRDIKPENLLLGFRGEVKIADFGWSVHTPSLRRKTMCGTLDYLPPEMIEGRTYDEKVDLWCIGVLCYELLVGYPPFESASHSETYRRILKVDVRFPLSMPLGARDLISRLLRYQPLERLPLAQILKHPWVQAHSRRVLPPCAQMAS

[2] = target: panel of more than 300 wild-type and mutant kinases (313 kinase panel) (Homo sapiens, UniProt P07947)
Sequence of panel of more than 300 wild-type and mutant kinases (313 kinase panel) (Homo sapiens, UniProt P07947) (P07947 whole entry, change not shown): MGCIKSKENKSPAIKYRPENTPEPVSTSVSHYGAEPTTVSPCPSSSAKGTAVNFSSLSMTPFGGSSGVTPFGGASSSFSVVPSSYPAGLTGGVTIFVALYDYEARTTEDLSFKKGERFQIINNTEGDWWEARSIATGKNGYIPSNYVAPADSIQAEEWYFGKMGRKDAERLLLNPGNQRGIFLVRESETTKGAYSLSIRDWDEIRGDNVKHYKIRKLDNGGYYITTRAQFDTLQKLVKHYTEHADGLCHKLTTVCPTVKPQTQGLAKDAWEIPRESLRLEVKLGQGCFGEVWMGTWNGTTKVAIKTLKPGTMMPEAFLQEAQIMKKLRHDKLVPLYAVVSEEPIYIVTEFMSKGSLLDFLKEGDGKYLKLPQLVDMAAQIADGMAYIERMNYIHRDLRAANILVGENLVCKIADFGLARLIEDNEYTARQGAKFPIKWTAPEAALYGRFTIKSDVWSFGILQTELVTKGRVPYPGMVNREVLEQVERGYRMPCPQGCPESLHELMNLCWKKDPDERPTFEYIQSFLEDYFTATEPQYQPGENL

[3] = target: panel of more than 300 wild-type and mutant kinases (313 kinase panel) (Homo sapiens, UniProt P08581)
[4] = target: panel of more than 300 wild-type and mutant kinases (313 kinase panel) (Homo sapiens, UniProt P22455, V550E); conditions: kinase FGFR4(V550E); compound at 1 μM
Sequence of panel of more than 300 wild-type and mutant kinases (313 kinase panel) (Homo sapiens, UniProt P22455, V550E) (P22455 22-802 V550E): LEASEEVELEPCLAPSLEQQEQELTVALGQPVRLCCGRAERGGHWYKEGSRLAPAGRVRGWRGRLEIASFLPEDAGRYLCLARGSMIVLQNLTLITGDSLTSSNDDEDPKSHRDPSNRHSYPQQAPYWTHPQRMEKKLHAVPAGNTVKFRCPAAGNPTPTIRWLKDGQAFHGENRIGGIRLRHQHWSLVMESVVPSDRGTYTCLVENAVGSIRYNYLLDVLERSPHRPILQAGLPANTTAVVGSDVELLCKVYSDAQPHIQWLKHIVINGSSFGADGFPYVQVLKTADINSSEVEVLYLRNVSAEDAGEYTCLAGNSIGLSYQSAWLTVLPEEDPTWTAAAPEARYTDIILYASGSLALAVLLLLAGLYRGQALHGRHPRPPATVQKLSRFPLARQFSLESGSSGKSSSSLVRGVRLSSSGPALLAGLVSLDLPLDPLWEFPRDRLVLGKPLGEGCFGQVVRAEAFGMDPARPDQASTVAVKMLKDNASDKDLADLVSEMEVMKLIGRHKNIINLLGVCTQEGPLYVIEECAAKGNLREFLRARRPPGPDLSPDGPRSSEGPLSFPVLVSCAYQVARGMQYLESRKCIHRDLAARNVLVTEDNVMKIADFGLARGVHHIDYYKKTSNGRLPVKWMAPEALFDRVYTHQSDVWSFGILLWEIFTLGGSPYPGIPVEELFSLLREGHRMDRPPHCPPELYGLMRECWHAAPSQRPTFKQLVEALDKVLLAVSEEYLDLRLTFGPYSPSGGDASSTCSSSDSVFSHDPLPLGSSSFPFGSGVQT

[5] = target: panel of more than 300 wild-type and mutant kinases (313 kinase panel) (Homo sapiens, UniProt Q96RG2); conditions: kinase PASK; 1 μM
Sequence of panel of more than 300 wild-type and mutant kinases (313 kinase panel) (Homo sapiens, UniProt Q96RG2) (Q96RG2 whole entry, change not shown): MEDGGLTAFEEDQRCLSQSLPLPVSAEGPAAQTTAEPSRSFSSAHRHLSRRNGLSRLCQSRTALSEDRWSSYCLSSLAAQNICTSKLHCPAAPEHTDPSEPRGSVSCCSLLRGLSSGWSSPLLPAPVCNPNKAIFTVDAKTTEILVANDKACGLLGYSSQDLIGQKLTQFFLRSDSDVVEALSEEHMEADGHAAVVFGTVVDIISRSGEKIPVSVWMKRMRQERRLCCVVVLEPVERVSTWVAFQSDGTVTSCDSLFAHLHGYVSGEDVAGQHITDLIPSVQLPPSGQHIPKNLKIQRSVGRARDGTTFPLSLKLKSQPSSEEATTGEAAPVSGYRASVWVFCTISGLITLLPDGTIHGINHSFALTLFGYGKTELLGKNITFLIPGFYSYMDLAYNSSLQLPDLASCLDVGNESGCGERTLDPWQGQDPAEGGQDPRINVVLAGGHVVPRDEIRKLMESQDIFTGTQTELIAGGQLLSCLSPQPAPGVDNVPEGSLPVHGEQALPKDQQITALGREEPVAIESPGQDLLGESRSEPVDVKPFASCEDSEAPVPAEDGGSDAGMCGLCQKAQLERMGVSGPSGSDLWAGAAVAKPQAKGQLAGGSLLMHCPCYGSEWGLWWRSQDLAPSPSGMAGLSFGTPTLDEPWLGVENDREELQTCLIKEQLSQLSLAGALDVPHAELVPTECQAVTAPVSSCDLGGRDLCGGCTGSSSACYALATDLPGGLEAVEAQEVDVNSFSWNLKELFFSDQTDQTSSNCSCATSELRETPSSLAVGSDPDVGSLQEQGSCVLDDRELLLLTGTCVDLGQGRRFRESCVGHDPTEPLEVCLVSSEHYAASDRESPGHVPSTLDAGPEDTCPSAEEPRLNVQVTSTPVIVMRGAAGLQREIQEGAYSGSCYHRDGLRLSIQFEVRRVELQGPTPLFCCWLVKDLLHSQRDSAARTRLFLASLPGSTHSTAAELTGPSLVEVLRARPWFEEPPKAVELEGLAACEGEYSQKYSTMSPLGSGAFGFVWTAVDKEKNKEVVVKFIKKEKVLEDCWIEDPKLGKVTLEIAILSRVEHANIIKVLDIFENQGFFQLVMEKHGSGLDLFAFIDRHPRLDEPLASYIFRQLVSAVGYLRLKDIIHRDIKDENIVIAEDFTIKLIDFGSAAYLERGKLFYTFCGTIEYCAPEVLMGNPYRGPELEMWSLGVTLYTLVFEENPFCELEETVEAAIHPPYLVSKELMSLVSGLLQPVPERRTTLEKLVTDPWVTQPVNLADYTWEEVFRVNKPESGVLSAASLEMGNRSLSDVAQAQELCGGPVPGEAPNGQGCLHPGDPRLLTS

[6] = target: panel of more than 300 wild-type and mutant kinases (313 kinase panel) (Homo sapiens, UniProt Q9HC98)
[7] = target: panel of more than 300 wild-type and mutant kinases (313 kinase panel) (Homo sapiens, UniProt P42685); conditions: kinase FRK; compound at 1 μM
[8] = target: panel of more than 300 wild-type and mutant kinases (313 kinase panel) (Homo sapiens, UniProt Q02763); conditions: kinase TIE2; 1 μM
Sequence of panel of more than 300 wild-type and mutant kinases (313 kinase panel) (Homo sapiens, UniProt Q02763) (Q02763 23-1124, change not shown): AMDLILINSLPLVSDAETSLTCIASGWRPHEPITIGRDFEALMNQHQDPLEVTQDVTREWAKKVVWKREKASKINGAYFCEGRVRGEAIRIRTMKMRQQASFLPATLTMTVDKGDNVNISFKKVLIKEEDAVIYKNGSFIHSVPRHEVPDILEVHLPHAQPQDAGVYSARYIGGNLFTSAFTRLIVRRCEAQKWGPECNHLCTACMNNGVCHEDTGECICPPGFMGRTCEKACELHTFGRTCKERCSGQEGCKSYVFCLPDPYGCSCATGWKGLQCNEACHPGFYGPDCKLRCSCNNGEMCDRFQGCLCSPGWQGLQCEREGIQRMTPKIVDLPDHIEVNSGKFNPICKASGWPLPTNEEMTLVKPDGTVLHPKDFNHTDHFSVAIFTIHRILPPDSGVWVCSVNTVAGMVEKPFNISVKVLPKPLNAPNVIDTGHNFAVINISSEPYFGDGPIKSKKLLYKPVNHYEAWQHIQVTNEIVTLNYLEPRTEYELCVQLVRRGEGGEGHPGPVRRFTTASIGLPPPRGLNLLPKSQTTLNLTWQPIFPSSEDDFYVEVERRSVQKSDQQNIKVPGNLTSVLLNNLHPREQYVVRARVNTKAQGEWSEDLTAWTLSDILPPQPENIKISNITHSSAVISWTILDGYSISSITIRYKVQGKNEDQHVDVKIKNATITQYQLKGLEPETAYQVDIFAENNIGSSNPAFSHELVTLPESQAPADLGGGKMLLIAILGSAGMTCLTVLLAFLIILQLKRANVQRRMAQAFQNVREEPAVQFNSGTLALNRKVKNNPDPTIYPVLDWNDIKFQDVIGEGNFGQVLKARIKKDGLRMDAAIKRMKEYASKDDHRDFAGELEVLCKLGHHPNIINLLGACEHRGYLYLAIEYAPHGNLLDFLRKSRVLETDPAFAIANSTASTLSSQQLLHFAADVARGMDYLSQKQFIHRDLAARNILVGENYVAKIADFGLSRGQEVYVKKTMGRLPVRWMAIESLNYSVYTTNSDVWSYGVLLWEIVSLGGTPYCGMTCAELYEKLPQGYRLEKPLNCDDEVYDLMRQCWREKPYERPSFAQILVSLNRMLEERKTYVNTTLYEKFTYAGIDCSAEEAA

[9] = target: panel of more than 300 wild-type and mutant kinases (313 kinase panel) (Homo sapiens, UniProt P49759); conditions: kinase CLK1; 1 μM compound
Sequence of panel of more than 300 wild-type and mutant kinases (313 kinase panel) (Homo sapiens, UniProt P49759) (P49759 whole entry, change not shown): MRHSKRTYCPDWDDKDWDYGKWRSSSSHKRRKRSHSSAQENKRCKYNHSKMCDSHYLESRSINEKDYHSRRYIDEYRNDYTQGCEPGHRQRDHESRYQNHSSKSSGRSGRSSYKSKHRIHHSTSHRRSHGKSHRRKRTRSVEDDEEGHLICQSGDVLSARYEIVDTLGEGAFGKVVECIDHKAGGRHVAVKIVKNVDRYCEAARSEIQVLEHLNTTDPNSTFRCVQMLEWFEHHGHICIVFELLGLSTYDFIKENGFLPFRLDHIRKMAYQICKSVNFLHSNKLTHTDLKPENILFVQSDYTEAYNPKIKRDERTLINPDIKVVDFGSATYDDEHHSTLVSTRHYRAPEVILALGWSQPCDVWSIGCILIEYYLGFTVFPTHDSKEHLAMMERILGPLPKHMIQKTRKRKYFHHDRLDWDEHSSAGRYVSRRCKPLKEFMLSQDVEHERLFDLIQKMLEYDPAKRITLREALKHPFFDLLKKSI

[10] = target: panel of more than 300 wild-type and mutant kinases (313 kinase panel) (Homo sapiens, UniProt O75582); conditions: kinase MSK1; 1 μM
[11] = target: panel of more than 300 wild-type and mutant kinases (313 kinase panel) (Homo sapiens, UniProt P49761)
Sequence of panel of more than 300 wild-type and mutant kinases (313 kinase panel) (Homo sapiens, UniProt P49761) (P49761 whole entry, change not shown): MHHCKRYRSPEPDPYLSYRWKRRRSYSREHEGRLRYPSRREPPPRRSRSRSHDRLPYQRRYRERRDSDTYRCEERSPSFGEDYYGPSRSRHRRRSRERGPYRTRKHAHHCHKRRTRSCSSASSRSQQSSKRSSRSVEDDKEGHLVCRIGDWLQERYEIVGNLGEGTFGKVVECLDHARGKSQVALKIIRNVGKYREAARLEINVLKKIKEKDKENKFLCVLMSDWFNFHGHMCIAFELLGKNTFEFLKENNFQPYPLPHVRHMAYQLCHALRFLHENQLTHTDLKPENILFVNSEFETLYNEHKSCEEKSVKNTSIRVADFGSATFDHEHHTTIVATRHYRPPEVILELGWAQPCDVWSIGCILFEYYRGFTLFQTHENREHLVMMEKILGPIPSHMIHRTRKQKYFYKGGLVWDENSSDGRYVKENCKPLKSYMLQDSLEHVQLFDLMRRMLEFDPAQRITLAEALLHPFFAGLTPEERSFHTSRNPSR

[12] = target: panel of more than 300 wild-type and mutant kinases (313 kinase panel) (Homo sapiens, UniProt P48729); conditions: kinase CK1α; 1 μM compound
[13] = target: T2, panel of more than 300 wild-type and mutant kinases (313 kinase panel) (Homo sapiens, UniProt Q12866)
T2 sequence (Q12866 21-999): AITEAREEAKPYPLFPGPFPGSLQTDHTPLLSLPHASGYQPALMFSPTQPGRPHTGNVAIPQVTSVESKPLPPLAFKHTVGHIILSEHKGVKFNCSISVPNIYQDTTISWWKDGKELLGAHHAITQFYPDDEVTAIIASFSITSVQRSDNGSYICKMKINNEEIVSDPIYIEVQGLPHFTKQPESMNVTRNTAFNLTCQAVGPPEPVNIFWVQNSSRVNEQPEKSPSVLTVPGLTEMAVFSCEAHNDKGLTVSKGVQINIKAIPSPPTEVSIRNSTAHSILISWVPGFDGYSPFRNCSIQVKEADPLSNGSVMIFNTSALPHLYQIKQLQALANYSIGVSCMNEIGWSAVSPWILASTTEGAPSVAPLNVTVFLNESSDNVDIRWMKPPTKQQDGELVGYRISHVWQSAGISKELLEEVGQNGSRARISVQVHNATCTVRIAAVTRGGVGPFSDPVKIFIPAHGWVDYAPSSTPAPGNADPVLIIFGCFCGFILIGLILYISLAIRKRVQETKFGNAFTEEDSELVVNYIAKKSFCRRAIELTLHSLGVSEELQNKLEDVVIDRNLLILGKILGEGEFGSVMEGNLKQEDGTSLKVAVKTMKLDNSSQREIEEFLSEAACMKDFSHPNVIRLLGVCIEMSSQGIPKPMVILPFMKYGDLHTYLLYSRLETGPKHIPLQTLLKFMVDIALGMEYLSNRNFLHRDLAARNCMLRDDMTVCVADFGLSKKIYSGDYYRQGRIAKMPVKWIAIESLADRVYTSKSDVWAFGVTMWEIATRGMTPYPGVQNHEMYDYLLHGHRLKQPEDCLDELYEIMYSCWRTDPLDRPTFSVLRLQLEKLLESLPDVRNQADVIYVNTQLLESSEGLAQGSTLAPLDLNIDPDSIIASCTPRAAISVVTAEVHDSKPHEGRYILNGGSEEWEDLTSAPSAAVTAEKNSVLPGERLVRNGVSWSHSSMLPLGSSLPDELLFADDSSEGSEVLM

[14] = target: panel of more than 300 wild-type and mutant kinases (313 kinase panel) (Homo sapiens, UniProt P11309); conditions: kinase PIM1; 1 μM

Structure (SMILES)	%-inhibition, AurC ([1]; 1 µM) [%]	%-inhibition of YES ([2]; kinase YES, compound at 1 μM) [%]	%-inhibition of MET ([3]; kinase MET, compound at 1 μM) [%]	%-inhibition of FGFR4(V550E) [4] [%]	%-inhibition of PASK [5] [%]	%-inhibition of NEK6 ([6]; 1 µM) [%]	%-inhibition of FRK [7] [%]	%-inhibition of TIE2 [8] [%]	%-inhibition, CLK1 [9] [%]	%-inhibition, AurC ([1]; kinase AurC, 1 μM compound) [%]	%-inhibition of MSK1 [10] [%]	%-inhibition of CLK3 ([11]; kinase CLK3, compound at 1 μM) [%]	%-inhibition, CK1α [12] [%]	%-inhibition of NEK6 ([6]; kinase NEK6, 1 μM) [%]	%-inhibition of MER ([13]; kinase MER, compound at 1 μM) [%]	%-inhibition of PIM1 [14] [%]	%-inhibition of CLK3 ([11]; 1 µM) [%]	%-inhibition of YES ([2]; 1 µM) [%]	%-inhibition of MET ([3]; 1 µM) [%]	%-inhibition of MER ([13]; 1 µM) [%]
COc1cc(Nc2c(C#N)cnc3cc(OCCCN4CCN(C)CC4)c(OC)cc23)c(Cl)cc1Cl [bosutinib]	-4	97	10	-3.46	-0.0941	-6	94	22												
CC(C)(C)c1nc(-c2cccc(NS(=O)(=O)c3c(F)cccc3F)c2F)c(-c2ccnc(N)n2)s1 [dabrafenib]			27	-5	1.12		81	81	7	23	0.0759	17	13	-3	-0.876					
CO[C@H]1C[C@@H]2CC[C@@H](C)[C@@](O)(O2)C(=O)C(=O)N2CCCC[C@H]2C(=O)O[C@H]([C@H](C)C[C@@H]2CC[C@@H](OCCO)[C@H](OC)C2)CC(=O)[C@H](C)/C=C(\C)[C@@H](O)[C@@H](OC)C(=O)[C@H](C)C[C@H](C)/C=C/C=C/C=C/1C [everolimus]		0	-4	-4.41	-9		1.26	-3.66	-7.39	-6.41	-2	-9	-11	-6.38	-4.24	-9				
O=S(=O)(c1cccc2cnccc12)N1CCCNCC1 [fasudil]		1.18	-4	-2.85	2.25		-3	-10	32	-0.164	37	-0.753		-2.46	-2.34	3				
Cc1ccc(C(=O)Nc2ccc(CN3CCN(C)CC3)c(C(F)(F)F)c2)cc1C#Cc1cnc2cccnn12 [ponatinib]		101	17	-1.79	25		100	101		19			8	-10						
CNC(=O)c1cc(Oc2ccc(NC(=O)Nc3ccc(Cl)c(C(F)(F)F)c3)c(F)c2)ccn1 [regorafenib]		62	2.12	-0.119	0.282		90	47	38	22	1	-15	-7.56	-6.48	29	-9				
N#CC[C@H](C1CCCC1)n1cc(-c2ncnc3[nH]ccc23)cn1 [ruxolitinib]				5	0.47		7	3	33		37		1.86	-6		-8	-2.14	24	-3.54	-0.749
CO[C@H]1C[C@@H]2CC[C@@H](C)[C@@](O)(O2)C(=O)C(=O)N2CCCC[C@H]2C(=O)O[C@H]([C@H](C)C[C@@H]2CC[C@@H](OC(=O)C(C)(CO)CO)[C@H](OC)C2)CC(=O)[C@H](C)/C=C(\C)[C@@H](O)[C@@H](OC)C(=O)[C@H](C)C[C@H](C)/C=C/C=C/C=C/1C [temsirolimus]		-7	-4.57	-0.119	-8		-11	-8		0.194	0	-3	-14	-3.31	-3.24	-8				
CC(=O)Nc1cccc(-n2c(=O)n(C3CC3)c(=O)c3c(Nc4ccc(I)cc4F)n(C)c(=O)c(C)c32)c1 [trametinib]		-1.63	-2.41	-3.28	-0.187		-3	-7	-0.618	1	-0.531	-0.0684	3	-0.324	-6.62	4.44				
